According to ChEMBL document CHEMBL1201862, “PubChem BioAssay data set” (2004):
The source made the active and inactive calls.

How the values were obtained:
[1] = target: T1, Endoribonuclease toxin MazF (Escherichia coli K-12, UniProt P0AE70); experiment: fluorescent RNA oligo signal without MazF, dose response, counter-screen for MazEF activator project, biochemical, fluorescence, single-stranded RNase substrate (AID 588502); format: functional
T1 sequence (P0AE70 whole entry): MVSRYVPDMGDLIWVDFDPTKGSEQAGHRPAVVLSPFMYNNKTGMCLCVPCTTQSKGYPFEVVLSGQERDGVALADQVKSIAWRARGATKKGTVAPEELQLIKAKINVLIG

[2] = target: T2, Zinc finger protein mex-5 (Caenorhabditis elegans, UniProt Q9XUB2); experiment: MEX-5/TCR-2 RNA interaction inhibitors, dose response, biochemical, C. elegans, fluorescence polarization (AID 1960)
T2 sequence (Q9XUB2 whole entry): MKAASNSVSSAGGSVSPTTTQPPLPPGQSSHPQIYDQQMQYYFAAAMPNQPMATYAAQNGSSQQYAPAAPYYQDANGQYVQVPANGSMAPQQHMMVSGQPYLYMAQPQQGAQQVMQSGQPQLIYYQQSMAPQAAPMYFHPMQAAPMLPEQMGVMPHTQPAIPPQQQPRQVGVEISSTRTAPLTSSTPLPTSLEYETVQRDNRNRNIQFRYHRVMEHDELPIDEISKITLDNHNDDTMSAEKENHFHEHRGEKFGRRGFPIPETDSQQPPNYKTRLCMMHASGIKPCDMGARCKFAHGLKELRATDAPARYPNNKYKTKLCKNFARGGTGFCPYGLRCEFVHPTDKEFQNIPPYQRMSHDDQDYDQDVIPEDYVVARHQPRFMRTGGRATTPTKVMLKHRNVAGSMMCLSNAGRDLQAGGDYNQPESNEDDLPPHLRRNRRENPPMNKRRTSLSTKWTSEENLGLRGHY

[3] = inhibitors of SNCA 5'UTR-driven reporter translation, confirmation, H4 neuroglioma cells, luminescence (AID 1988); format: functional, cell-based
[4] = target: T1, Endoribonuclease toxin MazF; experiment: MazF toxin RNase activators, dose response, biochemical, fluorescence, single-stranded RNA substrate, uHTS hits (AID 588481); format: functional
[5] = target: T3, RNA-binding protein pos-1 (Caenorhabditis elegans, UniProt G5EF15); experiment: inhibitors of POS-1/mex-3 RNA binding, dose response, biochemical, fluorescence polarization (AID 1964);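 also: purified POS-1 fused to maltose binding protein made in E. coli; potency of compounds blocking POS-1 binding to fluorescent RNA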
T3 sequence (G5EF15 whole entry): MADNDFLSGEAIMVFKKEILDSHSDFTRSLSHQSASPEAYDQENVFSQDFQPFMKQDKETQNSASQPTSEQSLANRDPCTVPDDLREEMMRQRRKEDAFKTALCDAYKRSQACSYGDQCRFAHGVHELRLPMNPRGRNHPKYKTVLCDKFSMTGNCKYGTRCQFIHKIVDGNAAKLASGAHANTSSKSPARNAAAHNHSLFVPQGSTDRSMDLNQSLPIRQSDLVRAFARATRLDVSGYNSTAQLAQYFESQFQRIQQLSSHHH

[6] = inhibitors of firefly luciferase expression or activity, dose response, H4 neuroglioma cells, luminescence (AID 1990); format: functional, cell-based
[7] = Luminescence Cell-Based Dose Response HTS to Identify Inhibitors of 5'UTR Stem-Loop Driven Prion Protein mRNA Translation in H4 Neuroglioblastoma Cells. [Related pubchem assays: 1827 (Project Summary), 1813 (Primary HTS)]; format: functional
[8] = target: T4, Nuclear receptor subfamily 0 group B member 1 (Homo sapiens, UniProt P51843); experiment: Luminescence-based cell-based high throughput dose response assay for inhibitors of the orphan nuclear receptor subfamily 0, group B, member 1 (DAX1; NR0B1). [Related pubchem assays (depositor defined):AID504766, AID504790]; format: functional
T4 sequence (P51843 whole entry): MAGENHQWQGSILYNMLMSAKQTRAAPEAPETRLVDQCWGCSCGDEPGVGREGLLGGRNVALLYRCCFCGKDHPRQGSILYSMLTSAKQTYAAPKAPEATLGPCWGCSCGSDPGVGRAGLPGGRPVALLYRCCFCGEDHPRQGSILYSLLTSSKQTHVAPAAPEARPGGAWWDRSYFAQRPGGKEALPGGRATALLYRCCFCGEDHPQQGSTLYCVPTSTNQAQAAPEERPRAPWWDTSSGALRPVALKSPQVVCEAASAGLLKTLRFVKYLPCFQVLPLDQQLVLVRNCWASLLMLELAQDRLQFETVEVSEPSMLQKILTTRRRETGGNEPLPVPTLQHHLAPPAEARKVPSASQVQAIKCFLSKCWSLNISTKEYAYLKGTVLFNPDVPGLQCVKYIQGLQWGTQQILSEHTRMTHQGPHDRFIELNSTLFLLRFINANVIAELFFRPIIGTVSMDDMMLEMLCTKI

HEK293 = experiment: cells; format: functional, cell-based; conditions: Homo sapiens
[9] = target: Dual specificity protein kinase CLK1 (Homo sapiens, UniProt P49759); experiment: CLK1 kinase inhibitors, off-target check, dose response, selectivity assay for Dyrk1A inhibitor project, biochemical, cherry-picked samples (AID 588811)
Chain of Dual specificity protein kinase CLK1 (P49759 whole entry): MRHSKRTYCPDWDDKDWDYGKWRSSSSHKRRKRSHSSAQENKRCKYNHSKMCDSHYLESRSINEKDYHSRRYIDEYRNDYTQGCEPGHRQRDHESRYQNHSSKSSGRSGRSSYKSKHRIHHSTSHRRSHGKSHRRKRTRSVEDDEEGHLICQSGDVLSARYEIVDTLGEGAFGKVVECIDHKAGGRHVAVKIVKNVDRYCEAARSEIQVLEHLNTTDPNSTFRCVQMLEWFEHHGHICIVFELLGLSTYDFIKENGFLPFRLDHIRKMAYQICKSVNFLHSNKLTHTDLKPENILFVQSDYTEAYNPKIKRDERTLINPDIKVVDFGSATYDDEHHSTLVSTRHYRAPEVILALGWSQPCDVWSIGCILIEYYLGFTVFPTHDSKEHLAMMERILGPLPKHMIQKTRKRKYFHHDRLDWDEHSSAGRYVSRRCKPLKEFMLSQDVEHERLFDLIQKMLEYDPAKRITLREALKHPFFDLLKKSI

Streptococcus = experiment: Group A Streptococcus viability loss, dose response, counter-screen for streptokinase expression inhibitor project, luminescence, BacTiterGlo (AID 1915); format: functional, organism-based;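 also: potency for reduction of bacterial viability or growth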
[10] = target: Dual specificity tyrosine-phosphorylation-regulated kinase 1A (Rattus norvegicus, UniProt Q63470); format: biochemical, Homo sapiens
[11] = tested on: Streptococcus sp. 'group A'; experiment: growth inhibition of control SK(-) GAS strain, dose response, counter-screen for streptokinase expression inhibitor project, luminescence, kanamycin, BacTiterGlo, confirmation (AID 1900); format: functional, organism-based
[12] = target: FAD-linked sulfhydryl oxidase ALR (Homo sapiens, UniProt P55789); experiment: inhibitors of human ALR sulfhydryl oxidase, dose response, biochemical, H2O2 detection, luminescence, cherry-pick (AID 493248)
Chain of FAD-linked sulfhydryl oxidase ALR (P55789 whole entry): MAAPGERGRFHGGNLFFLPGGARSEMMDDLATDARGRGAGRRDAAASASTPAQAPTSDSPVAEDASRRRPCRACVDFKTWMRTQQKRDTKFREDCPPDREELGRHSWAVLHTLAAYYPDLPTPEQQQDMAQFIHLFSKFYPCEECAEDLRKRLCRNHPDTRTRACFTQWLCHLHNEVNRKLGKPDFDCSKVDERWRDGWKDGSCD

Cytochrome P450 3A4 = Cytochrome P450 3A4 (Homo sapiens, UniProt P08684);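 also: CYP3A4 tested as one member of a cytochrome P450 panel screen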
Chain of Cytochrome P450 3A4 (P08684 whole entry): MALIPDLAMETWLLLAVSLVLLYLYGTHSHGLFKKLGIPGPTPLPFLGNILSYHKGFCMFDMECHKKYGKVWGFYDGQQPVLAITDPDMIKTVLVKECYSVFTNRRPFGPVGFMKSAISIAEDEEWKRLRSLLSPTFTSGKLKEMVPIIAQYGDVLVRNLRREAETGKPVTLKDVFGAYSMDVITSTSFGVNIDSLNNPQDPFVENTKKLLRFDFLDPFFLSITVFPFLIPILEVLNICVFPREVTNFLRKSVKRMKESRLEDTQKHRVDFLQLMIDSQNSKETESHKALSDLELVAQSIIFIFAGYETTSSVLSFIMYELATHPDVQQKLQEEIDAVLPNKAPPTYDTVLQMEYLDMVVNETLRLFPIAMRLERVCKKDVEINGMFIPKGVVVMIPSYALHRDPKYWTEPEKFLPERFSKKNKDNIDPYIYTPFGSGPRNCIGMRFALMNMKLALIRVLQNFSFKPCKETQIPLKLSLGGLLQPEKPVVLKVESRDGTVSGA

Cytochrome P450 2C19 = Cytochrome P450 2C19 (Homo sapiens, UniProt P33261); experiment: Cytochrome panel assay with activity outcomes. Panel member name: p450-cyp2c19 Compounds with AC50 equal or less than 10 uM are considered active; format: functional; conditions: read-out: AC50
Chain of Cytochrome P450 2C19 (P33261 whole entry): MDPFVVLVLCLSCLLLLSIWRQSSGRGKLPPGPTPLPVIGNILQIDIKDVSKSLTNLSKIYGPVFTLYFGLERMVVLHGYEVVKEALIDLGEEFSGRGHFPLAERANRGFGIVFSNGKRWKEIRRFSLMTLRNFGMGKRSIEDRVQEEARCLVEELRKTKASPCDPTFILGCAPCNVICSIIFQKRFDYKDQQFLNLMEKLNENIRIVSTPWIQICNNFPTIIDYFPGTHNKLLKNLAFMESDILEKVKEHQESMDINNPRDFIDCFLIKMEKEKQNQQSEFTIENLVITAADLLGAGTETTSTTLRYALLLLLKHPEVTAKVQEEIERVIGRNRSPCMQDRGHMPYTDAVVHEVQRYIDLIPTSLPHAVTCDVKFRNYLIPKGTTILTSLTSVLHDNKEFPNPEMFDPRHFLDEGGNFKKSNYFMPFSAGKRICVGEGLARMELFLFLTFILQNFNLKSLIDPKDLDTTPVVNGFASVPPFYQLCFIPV

Cytochrome P450 2C9 [13] = target: T5, Cytochrome P450 2C9 (Homo sapiens, UniProt P11712)
T5 sequence (P11712 whole entry): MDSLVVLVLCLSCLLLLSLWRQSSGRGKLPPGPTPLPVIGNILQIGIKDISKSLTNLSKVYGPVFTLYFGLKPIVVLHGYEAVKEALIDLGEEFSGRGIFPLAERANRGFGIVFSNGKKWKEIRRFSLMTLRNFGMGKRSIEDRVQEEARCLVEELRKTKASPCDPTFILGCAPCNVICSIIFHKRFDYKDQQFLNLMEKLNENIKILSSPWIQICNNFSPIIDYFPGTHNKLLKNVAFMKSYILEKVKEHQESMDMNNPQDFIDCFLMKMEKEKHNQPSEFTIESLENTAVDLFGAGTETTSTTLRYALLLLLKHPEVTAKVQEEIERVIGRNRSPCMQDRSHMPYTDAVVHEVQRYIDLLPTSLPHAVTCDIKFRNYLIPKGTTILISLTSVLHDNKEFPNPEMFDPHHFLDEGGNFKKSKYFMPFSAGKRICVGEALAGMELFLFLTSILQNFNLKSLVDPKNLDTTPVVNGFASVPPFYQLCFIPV

[14] = target: T6, Sentrin-specific protease 8 (Homo sapiens, UniProt Q96LD8); format: functional
T6 sequence (Q96LD8 whole entry): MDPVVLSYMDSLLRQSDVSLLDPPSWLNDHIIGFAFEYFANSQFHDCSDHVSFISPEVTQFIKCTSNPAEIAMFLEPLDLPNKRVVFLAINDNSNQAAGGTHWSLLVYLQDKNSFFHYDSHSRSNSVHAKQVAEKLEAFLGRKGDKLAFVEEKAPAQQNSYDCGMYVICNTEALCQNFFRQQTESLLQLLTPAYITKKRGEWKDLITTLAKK

cells = format: functional
Protein RecA = target: T7, Protein RecA (Mycobacterium tuberculosis, UniProt P9WHJ3); experiment: Fluorescence Cell-Free Homogeneous Dose Retest to Identify Inhibitors of RecA-Intein Splicing Activity. [Related pubchem assays (depositor defined):AID2097, AID2223, AID489010, AID492950]; format: functional
T7 sequence (P9WHJ3 whole entry): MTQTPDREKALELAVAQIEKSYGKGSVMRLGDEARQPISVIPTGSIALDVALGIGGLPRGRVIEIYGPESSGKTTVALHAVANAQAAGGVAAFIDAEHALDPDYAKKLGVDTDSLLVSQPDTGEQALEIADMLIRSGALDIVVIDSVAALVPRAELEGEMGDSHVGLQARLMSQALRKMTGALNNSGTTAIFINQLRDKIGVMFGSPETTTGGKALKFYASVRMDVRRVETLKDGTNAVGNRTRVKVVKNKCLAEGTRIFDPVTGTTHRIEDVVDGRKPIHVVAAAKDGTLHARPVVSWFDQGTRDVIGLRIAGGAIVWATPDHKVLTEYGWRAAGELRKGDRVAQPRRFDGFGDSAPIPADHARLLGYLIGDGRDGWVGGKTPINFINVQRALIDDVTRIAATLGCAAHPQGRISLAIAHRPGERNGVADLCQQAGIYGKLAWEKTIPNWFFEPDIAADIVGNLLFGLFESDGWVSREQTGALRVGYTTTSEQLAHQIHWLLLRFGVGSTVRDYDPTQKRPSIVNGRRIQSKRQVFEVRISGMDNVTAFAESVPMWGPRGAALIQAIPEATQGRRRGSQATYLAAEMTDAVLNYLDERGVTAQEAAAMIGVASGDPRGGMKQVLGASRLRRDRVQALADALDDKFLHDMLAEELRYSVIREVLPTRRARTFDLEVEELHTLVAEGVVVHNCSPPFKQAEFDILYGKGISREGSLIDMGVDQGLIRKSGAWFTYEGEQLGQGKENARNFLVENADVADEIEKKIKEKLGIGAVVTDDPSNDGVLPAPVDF

SUMO E1/E2 = SUMO E1/E2 (Homo sapiens, UniProt P63279+Q9UBE0+Q9UBT2); experiment: SAR analysis of SUMOylation using HTRF in an in-Vitro dose response assay. [Related pubchem assays (depositor defined):AID2006, AID2011, AID2018, AID2069, AID2658]; format: functional
Chain of SUMO E1/E2 (Q9UBE0 whole entry): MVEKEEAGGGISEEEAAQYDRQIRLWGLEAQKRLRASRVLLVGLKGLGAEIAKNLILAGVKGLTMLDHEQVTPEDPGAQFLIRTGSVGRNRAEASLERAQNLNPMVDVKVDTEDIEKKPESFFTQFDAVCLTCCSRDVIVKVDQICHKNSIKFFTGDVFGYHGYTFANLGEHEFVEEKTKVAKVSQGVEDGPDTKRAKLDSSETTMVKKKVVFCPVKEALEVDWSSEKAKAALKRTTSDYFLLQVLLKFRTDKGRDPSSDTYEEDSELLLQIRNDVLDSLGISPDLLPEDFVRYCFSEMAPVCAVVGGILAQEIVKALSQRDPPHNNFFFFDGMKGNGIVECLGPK
Chain of SUMO E1/E2 (Q9UBT2 whole entry): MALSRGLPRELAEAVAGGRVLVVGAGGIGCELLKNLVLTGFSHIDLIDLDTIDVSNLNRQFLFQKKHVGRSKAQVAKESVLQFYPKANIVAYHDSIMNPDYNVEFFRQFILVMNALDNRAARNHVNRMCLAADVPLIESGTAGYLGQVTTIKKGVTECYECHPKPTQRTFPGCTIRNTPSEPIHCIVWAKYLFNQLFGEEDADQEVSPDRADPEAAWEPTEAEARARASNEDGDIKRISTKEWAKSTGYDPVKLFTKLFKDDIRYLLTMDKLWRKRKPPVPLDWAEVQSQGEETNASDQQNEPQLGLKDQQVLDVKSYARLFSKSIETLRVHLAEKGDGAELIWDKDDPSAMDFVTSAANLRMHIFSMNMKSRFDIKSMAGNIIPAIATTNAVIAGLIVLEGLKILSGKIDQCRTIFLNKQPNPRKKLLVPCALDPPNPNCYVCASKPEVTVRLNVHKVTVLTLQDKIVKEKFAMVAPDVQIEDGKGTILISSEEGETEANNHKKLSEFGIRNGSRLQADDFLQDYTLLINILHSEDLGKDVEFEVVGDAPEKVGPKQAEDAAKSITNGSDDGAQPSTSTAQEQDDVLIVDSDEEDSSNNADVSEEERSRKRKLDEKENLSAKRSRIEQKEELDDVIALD
Chain of SUMO E1/E2 (P63279 whole entry): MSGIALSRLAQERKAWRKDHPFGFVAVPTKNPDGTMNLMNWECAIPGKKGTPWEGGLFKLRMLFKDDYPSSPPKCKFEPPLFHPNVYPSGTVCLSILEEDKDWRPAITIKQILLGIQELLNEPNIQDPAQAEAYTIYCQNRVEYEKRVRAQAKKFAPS

[15] = target: T8, Replicative DNA helicase DnaB (Mycobacterium tuberculosis, UniProt P9WMR3); experiment: DnaB intein splicing inhibitors, dose response, biochemical, cell-free fluorescence (AID 449749); format: functional
T8 sequence (P9WMR3 whole entry): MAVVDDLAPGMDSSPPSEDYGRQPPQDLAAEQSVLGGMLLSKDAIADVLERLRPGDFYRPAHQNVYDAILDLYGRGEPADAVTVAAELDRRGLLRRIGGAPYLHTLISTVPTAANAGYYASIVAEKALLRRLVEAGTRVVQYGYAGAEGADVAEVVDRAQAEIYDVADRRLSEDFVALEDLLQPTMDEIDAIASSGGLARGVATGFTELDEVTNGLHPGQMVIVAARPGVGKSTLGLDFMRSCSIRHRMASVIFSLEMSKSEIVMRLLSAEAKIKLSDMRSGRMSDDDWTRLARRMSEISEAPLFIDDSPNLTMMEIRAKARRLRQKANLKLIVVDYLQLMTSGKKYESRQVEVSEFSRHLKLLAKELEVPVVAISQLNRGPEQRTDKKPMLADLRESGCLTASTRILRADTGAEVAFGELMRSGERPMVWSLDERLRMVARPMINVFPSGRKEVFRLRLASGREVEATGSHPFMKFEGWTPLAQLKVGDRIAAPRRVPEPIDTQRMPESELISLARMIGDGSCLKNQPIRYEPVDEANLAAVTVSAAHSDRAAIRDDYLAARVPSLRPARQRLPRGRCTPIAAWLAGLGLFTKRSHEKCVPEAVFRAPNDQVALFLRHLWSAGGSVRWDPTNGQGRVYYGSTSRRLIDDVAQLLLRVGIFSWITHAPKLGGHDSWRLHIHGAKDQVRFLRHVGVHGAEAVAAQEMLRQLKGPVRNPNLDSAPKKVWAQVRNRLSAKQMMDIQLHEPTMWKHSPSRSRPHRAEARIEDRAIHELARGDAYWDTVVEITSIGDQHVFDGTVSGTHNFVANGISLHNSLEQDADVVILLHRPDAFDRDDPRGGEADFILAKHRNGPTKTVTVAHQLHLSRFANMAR

Genome polyprotein = Genome polyprotein (dengue virus type 2, UniProt P29990); experiment: Dengue-2 NS5 methyltransferase inhibitors, primary screen, biochemical, confirmation dose response (AID 588689); format: functional
Chain of Genome polyprotein (P29990 2492-3391 limits assumed): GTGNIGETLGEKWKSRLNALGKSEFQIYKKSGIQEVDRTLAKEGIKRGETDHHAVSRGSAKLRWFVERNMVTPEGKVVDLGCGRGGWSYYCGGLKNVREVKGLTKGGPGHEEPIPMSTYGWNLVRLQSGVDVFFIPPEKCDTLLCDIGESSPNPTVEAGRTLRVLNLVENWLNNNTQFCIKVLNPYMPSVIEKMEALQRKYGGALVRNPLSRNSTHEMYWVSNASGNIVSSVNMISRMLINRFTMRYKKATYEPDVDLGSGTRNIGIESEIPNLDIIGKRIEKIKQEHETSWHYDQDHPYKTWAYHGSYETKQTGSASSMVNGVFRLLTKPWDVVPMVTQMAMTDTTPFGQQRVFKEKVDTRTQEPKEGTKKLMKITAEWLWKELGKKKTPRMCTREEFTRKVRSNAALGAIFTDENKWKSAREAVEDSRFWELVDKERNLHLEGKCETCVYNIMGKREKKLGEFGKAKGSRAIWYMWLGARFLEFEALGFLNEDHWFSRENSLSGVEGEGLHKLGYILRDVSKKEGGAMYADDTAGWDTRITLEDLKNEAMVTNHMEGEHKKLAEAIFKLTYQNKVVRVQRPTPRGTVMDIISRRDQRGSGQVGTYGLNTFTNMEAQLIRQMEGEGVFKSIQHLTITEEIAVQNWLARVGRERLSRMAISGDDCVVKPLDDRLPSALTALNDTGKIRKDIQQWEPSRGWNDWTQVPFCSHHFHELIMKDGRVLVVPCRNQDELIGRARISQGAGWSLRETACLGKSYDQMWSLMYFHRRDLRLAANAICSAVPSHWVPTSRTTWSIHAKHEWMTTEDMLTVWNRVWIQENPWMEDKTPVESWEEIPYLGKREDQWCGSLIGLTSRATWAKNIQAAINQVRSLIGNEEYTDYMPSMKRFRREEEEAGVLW

[16] = target: T6, Sentrin-specific protease 8; format: functional; remark: listed apart in the source
Cytochrome P450 2C9 [17] = target: T5, Cytochrome P450 2C9; remark: listed apart in the source

SMILES: Cc1c(N/C=C2/C(=O)N(C)C(=O)c3ccccc32)c(=O)n(-c2ccccc2)n1C
- EC50 [1]: 56.4 µM (inactive)
- EC50 [2]: > 300 µM (inconclusive)
- EC50 [3]: > 120 µM (not active)
- EC50 [4]: > 99 µM (inactive)
- EC50 [5]: > 300 µM (not active)
- EC50 [6]: > 120 µM (not active)
- EC50 [7]: > 120 µM (not active)

SMILES: COc1ccc(-c2noc(-c3ccoc3C)n2)cc1
- IC50 [8]: > 67.6 µM (inactive)
- IC50 (HEK293): > 67.6 µM (inactive)

SMILES: Cc1noc(NS(=O)(=O)c2ccc(NC(=O)c3oc4ccc(Cl)cc4c3C)cc2)c1C
- AC50 [9]: 10 µM (active)
- EC50 (Streptococcus): 36.9 µM (active)
- AC50 [10]: 6.88 µM (active)
- EC50 [11]: 8.14 µM (active)
- AC50 [12]: 0.626 µM (active)

SMILES: Cc1cccc(-c2nc(Nc3ccc(O)cc3)c3ccccc3n2)c1
- AC50 [10]: 1.1 µM (active)

SMILES: CC(=O)OCc1nc2ccccc2s1
- AC50 (Cytochrome P450 3A4): inconclusive
- AC50 (Cytochrome P450 2C19): 25.1 µM (inconclusive)
- AC50 (Cytochrome P450 2C9 [13]): inconclusive

SMILES: Cn1cccc1/C=C1\SC(=O)N(c2ccc(O)cc2)C1=O
- EC50 [1]: 29.2 µM (inactive)
- EC50 [4]: > 99 µM (inactive)

SMILES: CCOC(=O)CN1C(=O)Nc2ccc(Br)cc2C1c1ccccc1 (centres undefined)
- AC50 (Cytochrome P450 3A4): inconclusive

SMILES: Cc1n[nH]c(O)c1C(c1ccc(-c2ccc(F)cc2)o1)c1c(C)n[nH]c1O
- IC50 [14]: 12.3 µM (active)
- IC50 (cells): 41.6 µM (active)
- EC50 (Protein RecA): 0.297 µM (active)
- IC50 (SUMO E1/E2): > 100 µM (inactive)
- AC50 [15]: 0.321 µM (active)
- IC50 (Genome polyprotein): 58.1 µM (active)
- IC50 [16]: 14 µM (active)

SMILES: CCn1c(=O)c(C(=O)NNS(=O)(=O)c2ccc(Br)cc2)c(O)c2ccccc21
- IC50 [8]: > 67.6 µM (inactive)
- IC50 (HEK293): > 67.6 µM (inactive)

SMILES: COc1ccc(C(=O)Nc2nc(C)c(C(C)=O)s2)cc1S(=O)(=O)N1CCOCC1
- EC50 [1]: > 99 µM (inactive)
- EC50 [4]: > 99 µM (inactive)

SMILES: O=C(c1ccco1)N1CCC2(CC1)CCN(C(c1ccccc1)c1ccccc1)CC2
- AC50 (Cytochrome P450 2C9 [17]): 39.8 µM (inconclusive)
- AC50 (Cytochrome P450 3A4): inconclusive
